{"source": "patent US20160303360A1", "about": "“Ultrasonic Transducer and Transdermal Delivery System” (Actuated Medical, Inc., priority 2015, published 2016)", "key": {"[1]": {"details": "pig, in vivo"}, "[2]": {"details": "human, in vivo, sc; cited from earlier work"}, "in vivo": {"assay": "in vivo", "details": "pig"}}, "data": [{"substance": "enfuvirtide", "values": [{"measurement": "difference in TEWL between treatment site and control site", "setting": "[1]", "value": "not statistically different"}, {"measurement": "patients experiencing injection site reaction", "setting": "[2]", "value": "up to 98%"}, {"measurement": "bioavailability", "setting": "in vivo", "value": "~30", "unit": "%"}]}]}
